The text below walks through data of ChEMBL document CHEMBL4842380, “Enhanced Properties of a Benzimidazole Benzylpyrazole Lysine Demethylase Inhibitor: Mechanism-of-Action, Binding Site Analysis, and Activity in Cellular Models of Prostate Cancer” (J Med Chem, 2021).

As usually defined, the IC50 is the concentration that gives 50% inhibition. A high value points to weaker potency. Broadly, the GI50 is the concentration giving 50% growth inhibition.

The nature of data set [1]: Cytotoxicity against human LnCaP cells assessed as remaining cell viability after 48 hrs by alamar blue assay. The class given is functional, Prostate cell. Background: The colour change of resazurin is a common sign of viable cells or microbes.
Data set [2] concerns the target T1, Lysine-specific demethylase 4E (Homo sapiens, UniProt B2RXH2).
T1 sequence (B2RXH2 whole entry): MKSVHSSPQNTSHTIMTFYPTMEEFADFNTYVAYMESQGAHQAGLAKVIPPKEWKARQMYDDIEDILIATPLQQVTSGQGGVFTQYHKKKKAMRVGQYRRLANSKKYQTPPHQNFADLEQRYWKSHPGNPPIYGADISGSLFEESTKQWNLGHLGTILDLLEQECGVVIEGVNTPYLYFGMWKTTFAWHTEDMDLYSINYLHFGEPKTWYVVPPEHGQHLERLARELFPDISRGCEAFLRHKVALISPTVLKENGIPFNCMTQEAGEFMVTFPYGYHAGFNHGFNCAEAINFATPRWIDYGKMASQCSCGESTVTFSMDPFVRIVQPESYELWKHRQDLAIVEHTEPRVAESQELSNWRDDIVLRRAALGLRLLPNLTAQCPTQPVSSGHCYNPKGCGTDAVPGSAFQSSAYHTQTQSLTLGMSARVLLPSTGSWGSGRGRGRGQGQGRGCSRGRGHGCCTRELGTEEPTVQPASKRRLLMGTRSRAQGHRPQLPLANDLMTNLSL
Briefly: Inhibition of N-terminal His6-tagged KDM4E (1 to 337 residues) (unknown origin) expressed in Escherichia coli BL21 (DE3)-R3 preincubated for 10 mins followed by substrate addition by fluorescence based FDH-coupled assay.

Data set [3] addresses T1, Lysine-specific demethylase 4E. Put plainly: Inhibition of N-terminal His6-tagged KDM4E (1 to 337 residues) (unknown origin) expressed in Escherichia coli BL21 (DE3)-R3 preincubated for 10 mins followed by alpha-KG addition after CTH addition for 2 hrs by ELISA. (An ELISA detects its analyte on a solid surface through an enzyme-linked reagent.)
Data set [4] in a line: Cytotoxicity against human prostate epithelial cells assessed as remaining cell viability after 48 hrs by alamar blue assay. The format is functional.
For data set [5], the system named is PC-3. Put plainly: Cytotoxicity against human PC-3 cells assessed as growth inhibition after 48 hrs by alamar blue assay. The class given is functional.
Data set [6] has as its system PC-3. Briefly: Cytotoxicity against human PC-3 cells assessed as remaining cell viability after 48 hrs by alamar blue assay. The class given is functional.
Data set [7] in a line: Cytotoxicity against human prostate epithelial cells assessed as growth inhibition after 48 hrs by alamar blue assay. The class given is cell-based, Prostate cell.
For data set [8], the system named is DU-145. Put plainly: Cytotoxicity against human DU-145 cells assessed as growth inhibition after 48 hrs by alamar blue assay. The format is functional.
For data set [9], the system named is DU-145. Put plainly: Cytotoxicity against human DU-145 cells assessed as remaining cell viability after 48 hrs by alamar blue assay. The format is functional.
A further data set relates to LNCaP. Briefly: Cytotoxicity against human LnCaP cells assessed as growth inhibition after 48 hrs by alamar blue assay. The format is functional.

With `COC(=O)Cc1cc(O)n(-c2nc3ccccc3[nH]2)n1`, the Activity in data set [1] was 15%; in data set [4], 12%; with PC-3 [6], 79%; in the data set with DU-145 [9], 69%. Further, the IC50 was 15 µM in data set [2] and 581 µM in data set [3]. Also, the values for the GI50 in the data set with PC-3 [5], with DU-145 [8] and with LNCaP were > 1000 µM, > 1000 µM and 410 µM, respectively. The GI50 at 48 h in [7] is > 500 µM.
